Values quoted from earlier work in article PMC6269118, “Populene D Analogues: Design, Concise Synthesis and Antiproliferative Activity” (Molecules, 2012).
Converted amounts (≈) assume the structure as drawn.

Key:
Set-up in all cases: method as in PMID 18553924
Conditions in all cases: cited from earlier work
colon cancer (HT-29) = tested on: colon cancer (HT-29)
B. subtilis = tested on: B. subtilis
cervical cancer (HeLa) = tested on: cervical cancer (HeLa)
oral cancer (KB) = tested on: oral cancer (KB)
breast cancer (MCF-7) = tested on: breast cancer (MCF-7)

In the case of `Cc1cc2c(c(O)c1O)[C@H](C)CC1=C2[C@@H](C)COC1(C)C` [Populene D], the IC50 (colon cancer (HT-29)) is listed as 2.37 µg/mL (≈ 8.22 µM), the MIC (B. subtilis) is listed as 4.69 µg/mL (≈ 16.3 µM) and the IC50 (cervical cancer (HeLa)) is listed as 1.85 µg/mL (≈ 6.41 µM). The IC50 (oral cancer (KB)) was 3.10 µg/mL (≈ 10.7 µM) and the IC50 (breast cancer (MCF-7)) was 0.95 µg/mL (≈ 3.29 µM).
